PubChem BioAssay (NCI)
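Five concentrations, 48 hours, 96-well plates. TGI denotes the concentration required for complete inhibition of growth.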

Key:
Test in all cases: NCI tumour cell line growth inhibition, 48 h
KM12 colon = tested on: KM12 colon
SF-268 CNS = tested on: SF-268 CNS
UACC-62 melanoma = tested on: UACC-62 melanoma
SR leukemia = tested on: SR leukemia
MALME-3M melanoma = tested on: MALME-3M melanoma
SNB-19 CNS = tested on: SNB-19 CNS
MDA-N = tested on: MDA-N
HOP-62 NSCLC = tested on: HOP-62 NSCLC
NCI-H226 lung = tested on: NCI-H226 lung
DU-145 prostate = tested on: DU-145 prostate
HS 578T breast = tested on: HS 578T breast
OVCAR-5 ovarian = tested on: OVCAR-5 ovarian
OVCAR-3 ovarian = tested on: OVCAR-3 ovarian
HL-60(TB) leukemia = tested on: HL-60(TB) leukemia
SF-539 CNS = tested on: SF-539 CNS
NCI-H522 lung = tested on: NCI-H522 lung
MDA-MB-435 = tested on: MDA-MB-435
K-562 leukemia = tested on: K-562 leukemia
UACC-257 melanoma = tested on: UACC-257 melanoma
PC-3 prostate = tested on: PC-3 prostate
ACHN renal = tested on: ACHN renal
SF-295 CNS = tested on: SF-295 CNS
SK-MEL-2 melanoma = tested on: SK-MEL-2 melanoma
UO-31 renal = tested on: UO-31 renal
T-47D breast = tested on: T-47D breast
HCT-15 colon = tested on: HCT-15 colon
SK-OV-3 ovarian = tested on: SK-OV-3 ovarian
HT29 colon = tested on: HT29 colon
CCRF-CEM leukemia = tested on: CCRF-CEM leukemia
NCI/ADR-RES ovarian = tested on: NCI/ADR-RES ovarian
HCT-116 colon = tested on: HCT-116 colon
CAKI-1 renal = tested on: CAKI-1 renal
U251 CNS = tested on: U251 CNS
M14 melanoma = tested on: M14 melanoma
SK-MEL-5 melanoma = tested on: SK-MEL-5 melanoma
SNB-75 CNS = tested on: SNB-75 CNS
BT-549 breast = tested on: BT-549 breast
MCF7 breast = tested on: MCF7 breast
NCI-H23 lung = tested on: NCI-H23 lung
OVCAR-8 ovarian = tested on: OVCAR-8 ovarian
A498 renal = tested on: A498 renal
MOLT-4 leukemia = tested on: MOLT-4 leukemia
SN12C renal = tested on: SN12C renal
SW-620 colon = tested on: SW-620 colon
A549 NSCLC = tested on: A549 NSCLC
IGROV1 ovarian = tested on: IGROV1 ovarian
COLO 205 colon = tested on: COLO 205 colon
NCI-H460 lung = tested on: NCI-H460 lung
HCC-2998 colon = tested on: HCC-2998 colon
786-0 renal = tested on: 786-0 renal
SK-MEL-28 melanoma = tested on: SK-MEL-28 melanoma
RPMI-8226 leukemia = tested on: RPMI-8226 leukemia
RXF 393 renal = tested on: RXF 393 renal
LOX IMVI melanoma = tested on: LOX IMVI melanoma
MDA-MB-231 breast = tested on: MDA-MB-231 breast
EKVX NSCLC = tested on: EKVX NSCLC
TK-10 renal = tested on: TK-10 renal
HOP-92 NSCLC = tested on: HOP-92 NSCLC
OVCAR-4 ovarian = tested on: OVCAR-4 ovarian

Measured: TGI

O=C(O)c1cc(CCc2ccc(O)c(O)c2)ccc1O
45.8 µM: K-562 leukemia
59.2 µM: HL-60(TB) leukemia
61.7 µM: SR leukemia
32.3 µM: MDA-N
> 100 µM: KM12 colon | SF-268 CNS | UACC-62 melanoma | MALME-3M melanoma | SNB-19 CNS | HOP-62 NSCLC | NCI-H226 lung | DU-145 prostate | HS 578T breast | OVCAR-5 ovarian | OVCAR-3 ovarian | SF-539 CNS | NCI-H522 lung | MDA-MB-435 | UACC-257 melanoma | PC-3 prostate | ACHN renal | SF-295 CNS | SK-MEL-2 melanoma | UO-31 renal | T-47D breast | HCT-15 colon | SK-OV-3 ovarian | HT29 colon | CCRF-CEM leukemia | NCI/ADR-RES ovarian | HCT-116 colon | CAKI-1 renal | U251 CNS | M14 melanoma | SK-MEL-5 melanoma | SNB-75 CNS | BT-549 breast | MCF7 breast | NCI-H23 lung | OVCAR-8 ovarian | A498 renal | MOLT-4 leukemia | SN12C renal | SW-620 colon | A549 NSCLC | IGROV1 ovarian | COLO 205 colon | NCI-H460 lung | HCC-2998 colon | 786-0 renal

CN(C)c1cccc(-c2cc(=S)c3cc4c(cc3[nH]2)OCO4)c1
> 100 µM: KM12 colon | SF-268 CNS | UACC-62 melanoma | SR leukemia | SK-MEL-28 melanoma | MALME-3M melanoma | SNB-19 CNS | HOP-62 NSCLC | NCI-H226 lung | DU-145 prostate | HS 578T breast | RPMI-8226 leukemia | OVCAR-5 ovarian | OVCAR-3 ovarian | LOX IMVI melanoma | SF-539 CNS | K-562 leukemia | UACC-257 melanoma | PC-3 prostate | ACHN renal | SF-295 CNS | SK-MEL-2 melanoma | UO-31 renal | T-47D breast | HCT-15 colon | SK-OV-3 ovarian | MDA-MB-231 breast | CCRF-CEM leukemia | EKVX NSCLC | NCI/ADR-RES ovarian | HCT-116 colon | CAKI-1 renal | U251 CNS | M14 melanoma | SK-MEL-5 melanoma | BT-549 breast | MCF7 breast | NCI-H23 lung | OVCAR-8 ovarian | A498 renal | SN12C renal | SW-620 colon | TK-10 renal | A549 NSCLC | IGROV1 ovarian | HOP-92 NSCLC | COLO 205 colon | NCI-H460 lung | 786-0 renal | OVCAR-4 ovarian
> 77.7 µM: HCC-2998 colon
24.7 µM: HT29 colon
43.3 µM: RXF 393 renal
67.7 µM: NCI-H522 lung
> 93 µM: MOLT-4 leukemia
11.8 µM: MDA-N
